According to patent US8389526B2, “3-heteroarylmethyl-imidazo[1,2-b]pyridazin-6-yl derivatives” (Novartis AG, priority 2009, dated 2013):

Key:
c-Met = target: T1, c-Met (Homo sapiens, UniProt P08581); assay: GTL-16 c-Met autophosphorylation measured by AlphaScreen detection; assay type: cell-based; settings: GTL-16 cells, 1 h incubation, AlphaScreen p-c-Met; read-out: GTL-16 IC50 c-Met phosphorylation
T1 construct: adapted to measure the phosphorylation of endogenous cellular proteins in cell lysates; endogenous in cells; host or cells: GTL-16
Experimental: (§1) C-Met Dependent Cellular Assays
(§2) A number of compounds of the present invention were assayed in a c-Met dependent proliferation and phosphorylation assay as follows.
GTL-16 c-Met autophosphorylation measured by AlphaScreen® detection: the human MET-amplified gastric cancer cells GTL-16 were plated in 384-well plates at a density of 10′000 cells in 20 ul complete growth medium (DMEM high glucose supplemented with 10% (v/v) heat inactivated fetal calf serum and of 1 mM sodium pyruvate) and were incubated at […]/5% CO2/95% humidity for 20 h. The cells were washed and the 30 ul assay buffer (DMEM high glucose, 1 mM sodium pyruvate, 0.1% bovine serum albumine) was added. Compounds were diluted in 384-well compound plates to obtain 8-point serial dilutions for 40 test compounds in 90% DMSO, as well as a reference compound plus 16 high- and 16 low (inhibited) controls. These compound plates were prediluted 1:200 in assay buffer into a compound predilution plate and 10 ul of prediluted compound solution were transferred to the cell plate using a 384-well pipettor, resulting in a final DMSO concentration of 0.11%. Cells were incubated for 1 h at […]/5% CO2/95% humidity. The supernatant was removed, the cells were lysed in 25 ul of RIPA [radio immuno precipitation assay] lysis buffer supplemented with 2 mM sodium vanadate and a protease inhibitor cocktail, and cell plates were stored at −80° C.
For detection of p-c-Met, an AlphaScreen®-based assay was used. AlphaScreen® (Amplified Luminescent Proximity Homogeneous Assay, ALPHA, Perkin Elmer, U.S.A) is a non-radioactive bead-based proximity assay technology to study biomolecular interactions in a homogenous microtiter plate format. This technique has been adapted to measure the phosphorylation of endogenous cellular proteins in cell lysates by the use of specific antibody pairs against the total protein and a phospho-specific epitope. 5 ul of cell lysate was transferred to 384-well low volume Proxiplates for detection using a 384-well pipettor. First, 5 ul of a premix of an anti-c-Met antibody (0.25 ug/ml f.c.), a biotinylated PY20 antibody (phosphotyrosine antibody, 0.05 ug/ml f.c.) and AlphaScreen® Protein A-coupled acceptor beads (10 ug/ml f.c.) in RIPA buffer supplemented with 0.25% (v/w) TOP BLOCK, 2 mM sodium vanadate, and a protease inhibitor cocktail and was added, the plate was sealed, and incubated on a plate shaker for 2 hours at room temperature. Second, 2 ul of dilution buffer containing AlphaScreen® Streptavidin-coated donor beads (10 ug/ml f.c.) in RIPA buffer was added, and the plate was incubated on plate shaker as above for a further 2 hours. The plate was read on an AlphaScreen® compatible plate reader, using standard AlphaScreen® settings.

[1] = test system: MET-amplified gastric cancer cell line GTL-16; assay: GTL-16 proliferation assay (MTS); assay type: cell-based; settings: Homo sapiens, GTL-16 cells, 72 h incubation
Experimental: as §1, §2
GTL-16 proliferation assay: the MET-amplified gastric cancer cell line GTL-16 was grown under standard cell culture conditions in DMEM [Dulbecco's Modified Eagle Medium] (high glucose) supplemented with 10% heat-inactivated fetal calf serum and 2 mM L-glutamine. For proliferation assays, cells were seeded at 3000 per well in 96-well-plates. 24 h later, a 10-point dilution series of each compound (3-fold steps, ranging from […]) was prepared in DMSO. Compound were then diluted 1000-fold in growth media in two steps and added to cells in triplicates, resulting in a final volume of […] per well and maximal final compound concentrations of […]. A DMSO-only control was included. Cells were incubated for 72 h and the amount of viable cells was then measured by adding […] of MTS reagent (CellTiter 96® AQueous Non-Radioactive Cell Proliferation Assay, Promega), further incubation for 30′, and reading the optical density at 490 nm.

[2] = target: T2, c-Met receptor tyrosine kinase, GST-c-Met(969-1390) (Homo sapiens, UniProt P08581); assay: EPK c-Met profiling assay (LanthaScreen TR-FRET kinase assay); assay type: biochemical; settings: 2 μM ATP, 0.3 nM enzyme, 60 minutes at room temperature
T2 construct: made in house
Experimental: A number of compounds of the present invention were assayed in an antibody based kinase phosphorylation assay as follows.
Epk c-Met Profiling Assay:
The EPK kinase assay for c-Met receptor tyrosine kinase was developed, using the purified recombinant GST-fusion protein, containing the cytoplasmic domain of the enzyme. GST-c-Met(969-1390) was purified by affinity chromatography.
The kinase assay is based on the LanthaScreen™ technology. LanthaScreen™ is the detection of Time-Resolved Fluorescence Resonance Energy Transfer (TR-FRET) using lanthanide chelates to measure interactions between various binding partners. In a TR-FRET kinase assay, a long-lifetime lanthanide donor species is conjugated to an antibody that specifically binds to a phosphorylated product of a kinase reaction that is labeled with a suitable acceptor fluorophore. This antibody-mediated interaction brings the lanthanide donor and the acceptor into proximity such that resonance energy transfer can take place, resulting in a detectible increase in the FRET signal.
The kinase reactions were performed in 384 well microtiter plates in a total reaction volume of 9.05 μL. The assay plates were prepared with 0.05 μL per well of test compound in the appropriate test concentration, as described under “preparation of compound dilutions”. The reactions were started by combining 4.5 μL of ATP solution with 4.5 μL of enzyme-substrate mix (consisting of kinase and substrate). The final concentrations in the kinase reactions were 35 mM Tris/HCl, 1 mM DTT, 0.025% Tween20, 10 μM sodium orthovanadate, 0.25% BSA, 0.6% DMSO, 10 mM MgCl2, 3 mM MnCl2, 2 μM ATP, 50 nM Fluorescein-PolyEAY, and 0.3 nM enzyme.
The reactions were incubated for 60 minutes at room temperature and stopped by adding 4.5 μL of stop buffer (50 mM EDTA, 0.04% NP40, 20 mM Tris/HCl).
Subsequently 4.5 μL of detection mix (50 mM Tris/HCl, 2 mM DTT, 0.05% Tween20, 20 μM sodium orthovanadate, 1% BSA, 1.72 μg/mL Tb-PY20 antibody) were added to the stopped reactions. After 30 minutes incubation at room temperature, the plates were measured in a BMG Pherastar fluorescence reader. The effect of compound on the enzymatic activity was in all assays obtained from the linear progress curves and determined from one reading (end point measurement).
Preparation of Compound Dilutions
Test compounds were dissolved in DMSO (10 mM) and transferred into 1.4 mL flat bottom or V-shaped Matrix tubes carrying a unique 2D matrix. The stock solutions were stored at −20° C. if not used immediately. For the test procedure the vials were defrosted and identified by a scanner whereby a working sheet was generated that guided the subsequent working steps.
Compound dilutions were made in 96 well plates. This format enabled the assay of maximally 40 individual test compounds at 8 concentrations (single points) including 4 reference compounds. The dilution protocol included the production of “pre-dilution plates”, “master plates” and “assay plates”.
Pre-dilution plates: 96 polypropylene well plates were used as pre-dilution plates. A total of 4 pre-dilution plates were prepared including 10 test compounds each on the plate positions A1-A10, one standard compound at A11 and one DMSO control at A12. All dilution steps were done on a HamiltonSTAR robot.
Master plates: 100 μL of individual compound dilutions including standard compound and controls of the 4 “pre-dilution plates” were transferred into a 384 “master plate” including the following concentrations 1′820, 564, 182, 54.6, 18.2, 5.46, 1.82 and 0.546 μM, respectively in 90% of DMSO.
Assay plates: Identical “assay plates” were then prepared by pipetting 50 nL each of compound dilutions of the “master plates” into 384-well “assay plates” by means of a HummingBird 384-channel dispenser. These plates were used directly for the assay which was performed in a total volume of 9.05 μL. […]

T2 sequence (P08581 969-1390): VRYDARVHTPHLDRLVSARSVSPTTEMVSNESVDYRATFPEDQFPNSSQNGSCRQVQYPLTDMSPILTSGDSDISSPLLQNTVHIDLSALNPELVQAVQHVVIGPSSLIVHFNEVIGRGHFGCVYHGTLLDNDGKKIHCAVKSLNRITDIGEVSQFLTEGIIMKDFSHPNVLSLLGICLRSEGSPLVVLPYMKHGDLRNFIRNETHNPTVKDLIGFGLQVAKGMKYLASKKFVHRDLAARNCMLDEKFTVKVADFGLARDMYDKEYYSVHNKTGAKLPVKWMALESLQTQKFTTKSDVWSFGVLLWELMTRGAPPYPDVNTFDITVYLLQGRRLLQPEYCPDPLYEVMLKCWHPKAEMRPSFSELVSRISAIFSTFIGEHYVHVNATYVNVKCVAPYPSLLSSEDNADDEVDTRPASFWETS
T1 sequence (P08581 25-1390): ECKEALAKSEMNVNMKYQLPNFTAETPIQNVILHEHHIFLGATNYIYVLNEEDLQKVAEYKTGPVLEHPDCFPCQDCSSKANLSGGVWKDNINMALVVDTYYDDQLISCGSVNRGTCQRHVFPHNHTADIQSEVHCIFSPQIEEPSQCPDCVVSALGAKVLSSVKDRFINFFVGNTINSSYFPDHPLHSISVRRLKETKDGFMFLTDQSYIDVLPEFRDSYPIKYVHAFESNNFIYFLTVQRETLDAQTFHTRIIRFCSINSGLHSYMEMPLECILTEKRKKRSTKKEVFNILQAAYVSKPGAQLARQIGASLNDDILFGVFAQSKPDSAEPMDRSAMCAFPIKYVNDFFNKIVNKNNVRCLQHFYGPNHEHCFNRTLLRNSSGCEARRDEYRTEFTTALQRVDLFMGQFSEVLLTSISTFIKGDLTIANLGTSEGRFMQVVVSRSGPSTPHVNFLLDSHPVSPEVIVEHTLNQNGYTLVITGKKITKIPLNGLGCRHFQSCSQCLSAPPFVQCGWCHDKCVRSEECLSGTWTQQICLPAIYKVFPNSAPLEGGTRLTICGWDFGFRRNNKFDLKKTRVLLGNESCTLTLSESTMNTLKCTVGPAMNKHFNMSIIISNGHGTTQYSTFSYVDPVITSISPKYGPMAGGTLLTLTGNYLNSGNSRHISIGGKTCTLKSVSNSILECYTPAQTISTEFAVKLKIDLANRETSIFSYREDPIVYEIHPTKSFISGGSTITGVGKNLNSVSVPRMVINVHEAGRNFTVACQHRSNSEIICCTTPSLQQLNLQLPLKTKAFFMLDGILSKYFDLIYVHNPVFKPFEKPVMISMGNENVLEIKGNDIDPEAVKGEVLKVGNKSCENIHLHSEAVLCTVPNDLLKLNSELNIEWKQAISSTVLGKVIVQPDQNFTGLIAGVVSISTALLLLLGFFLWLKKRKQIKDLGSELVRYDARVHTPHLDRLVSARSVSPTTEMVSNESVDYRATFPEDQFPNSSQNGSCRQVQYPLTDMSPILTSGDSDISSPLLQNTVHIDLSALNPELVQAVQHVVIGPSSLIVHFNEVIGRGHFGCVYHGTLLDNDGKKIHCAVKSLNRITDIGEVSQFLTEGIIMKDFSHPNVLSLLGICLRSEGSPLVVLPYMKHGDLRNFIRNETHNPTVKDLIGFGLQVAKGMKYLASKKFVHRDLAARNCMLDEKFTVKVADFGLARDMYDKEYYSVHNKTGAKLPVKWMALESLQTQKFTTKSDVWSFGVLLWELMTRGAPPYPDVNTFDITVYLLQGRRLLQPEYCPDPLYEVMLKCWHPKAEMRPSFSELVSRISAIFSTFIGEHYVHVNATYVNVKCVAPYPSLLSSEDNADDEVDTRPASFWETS

CC(c1c(F)cc2ncccc2c1F)c1cnc2ccc(N3CCN(C)C(=O)C3)nn12 (racemic) [Example 1, (rac)-4-{3-[1-(5,7-Difluoro-quinolin-6-yl)-ethyl]-imidazo[1,2-b]pyridazin-6-yl}-1-methyl-piperazin-2-one]
IC50 (c-Met): < 3 nM | IC50 [1]: 9.1 nM | IC50 [2]: 8.6 nM

CC(c1c(F)cc2ncccc2c1F)c1cnc2ccc(N3CCNC(=O)C3)nn12 (racemic) [Example 3, (rac)-4-{3-[1-(5,7-Difluoro-quinolin-6-yl)-ethyl]-imidazo[1,2-b]pyridazin-6-yl}-piperazin-2-one]
IC50 (c-Met): < 3 nM | IC50 [1]: 6 nM | IC50 [2]: 5.2 nM

CC(c1c(F)cc2ncccc2c1F)c1cnc2ccc(N3CCNCC3)nn12 (racemic) [Example 6, (rac)-5,7-Difluoro-6-[1-(6-piperazin-1-yl-imidazo[1,2-b]pyridazin-3-yl)-ethyl]-quinoline]
IC50 (c-Met): 3 nM | IC50 [1]: 11.6 nM | IC50 [2]: 4.5 nM

CC(c1c(F)cc2ncccc2c1F)c1cnc2ccc(N3CCN(C)CC3)nn12 (racemic) [Example 8, (rac)-5,7-Difluoro-6-{1-[6-(4-methyl-piperazin-1-yl)-imidazo[1,2-b]pyridazin-3-yl]-ethyl}-quinoline]
IC50 (c-Met): < 3 nM | IC50 [1]: 15.5 nM | IC50 [2]: 5.7 nM

CC(=O)N1CCN(c2ccc3ncc(C(C)c4c(F)cc5ncccc5c4F)n3n2)CC1 (racemic) [Example 10, (rac)-1-(4-{3-[1-(5,7-Difluoro-quinolin-6-yl)-ethyl]-imidazo[1,2-b]pyridazin-6-yl}-piperazin-1-yl)ethanone]
IC50 (c-Met): < 3 nM | IC50 [1]: 14.6 nM | IC50 [2]: < 3 nM

CC(c1c(F)cc2ncccc2c1F)c1cnc2ccc(N3CCN(C=O)CC3)nn12 (racemic) [Example 12, (rac)-4-{3-[1-(5,7-Difluoro-quinolin-6-yl)-ethyl]-imidazo[1,2-b]pyridazin-6-yl}-piperazine-1-carbaldehyde]
IC50 [2]: 8 nM

COC(=O)N1CCN(c2ccc3ncc(C(C)c4c(F)cc5ncccc5c4F)n3n2)CC1 (racemic) [Example 14, (rac)-4-{3-[1-(5,7-Difluoro-quinolin-6-yl)-ethyl]-imidazo[1,2-b]pyridazin-6-yl}-piperazine-1-carboxylic acid methyl ester]
IC50 [2]: 7.9 nM

CC(c1c(F)cc2ncccc2c1F)c1cnc2ccc(N3CCN(C(N)=O)CC3)nn12 (racemic) [Example 15, (rac)-4-{3-[1-(5,7-Difluoro-quinolin-6-yl)-ethyl]-imidazo[1,2-b]pyridazin-6-yl}-piperazine-1-carboxylic acid amide]
IC50 (c-Met): 8.3 nM | IC50 [1]: 18 nM | IC50 [2]: 5.4 nM

CC(c1c(F)cc2ncccc2c1F)c1cnc2ccc(N3CCNC(=O)C3C)nn12 (racemic) [Example 18, (rac)-4-{3-[1-(5,7-Difluoro-quinolin-6-yl)-ethyl]-imidazo[1,2-b]pyridazin-6-yl}-3-methyl-piperazin-2-one]
IC50 [1]: 9.2 nM | IC50 [2]: 8.3 nM

C[C@H](c1c(F)cc2ncccc2c1F)c1cnc2ccc(N3CCNC(=O)C3)nn12 (single isomer, unassigned) [Example 4]
IC50 [2]: 680 nM

CN1CCN(c2ccc3ncc(Cc4cc5cccnc5cc4F)n3n2)CC1=O [Example 37, 4-[3-(7-Fluoro-quinolin-6-ylmethyl)-imidazo[1,2-b]pyridazin-6-yl]-1-methyl-piperazin-2-one]
IC50 [2]: 58 nM

O=C1CN(c2ccc3ncc(Cc4cc5cccnc5cc4F)n3n2)CCN1 [Example 38, 4-[3-(7-Fluoro-quinolin-6-ylmethyl)-imidazo[1,2-b]pyridazin-6-yl]-piperazin-2-one]
IC50 [2]: 31 nM

CC(=O)N1CCN(c2ccc3ncc(Cc4cc5cccnc5cc4F)n3n2)CC1 [Example 39, 1-{4-[3-(7-Fluoro-quinolin-6-ylmethyl)-imidazo[1,2-b]pyridazin-6-yl]-piperazin-1-yl}-ethanone]
IC50 [2]: 84 nM

CN1CCN(c2ccc3ncc(Cc4ccc5ncccc5c4F)n3n2)CC1=O [Example 43, 4-[3-(5-Fluoro-quinolin-6-ylmethyl)-imidazo[1,2-b]pyridazin-6-yl]-1-methyl-piperazin-2-one]
IC50 [2]: 84 nM

CC(=O)N1CCN(c2ccc3ncc(Cc4ccc5ncccc5c4F)n3n2)CC1 [Example 45, 1-{4-[3-(5-Fluoro-quinolin-6-ylmethyl)-imidazo[1,2-b]pyridazin-6-yl]-piperazin-1-yl}-ethanone]
IC50 [2]: 170 nM

CC(=O)N1CCN(c2ccc3ncc(Cc4c(F)cc5c(cnn5C)c4F)n3n2)CC1 [Example 55, 1-(4-(3-((4,6-difluoro-1-methyl-1H-indazol-5-yl)methyl)imidazo[1,2-b]pyridazin-6-yl)piperazin-1-yl)ethanone]
IC50 [2]: 29 nM
